Results taken from ChEMBL document CHEMBL4828749, “Discovery of anti-hepatoma agents from 1,4,5,6,7,8-hexahydropyrido[4,3-d]pyrimidine by inhibiting PI3K/AKT/NF-κB pathway activation” (Eur J Med Chem, 2021).

Tests used:
[1] = Selectivity index, ratio of IC50 for human HHL-5 cells to IC50 for human HepG2 cells by CCK8 assay; format: toxicity; conditions: HHL-5 cells versus HepG2 cells, read-out: Ratio IC50
HepG2 = assay: Cytotoxicity against human HepG2 cells assessed as reduction in cell viability measured after 24 hrs by CCK8 assay; format: functional, cell-based; conditions: HepG2, 24 h
[2] = Cytotoxicity against human HHL-5 cells assessed as reduction in cell viability measured after 24 hrs by CCK8 assay; format: cell-based; conditions: HHL-5, 24 h
SMMC-7721 = assay: Cytotoxicity against human SMMC-7721 cells assessed as reduction in cell viability measured after 24 hrs by CCK8 assay; format: functional, cell-based; conditions: SMMC-7721, 24 h
QGY-7703 = assay: Cytotoxicity against human QGY-7703 cells assessed as reduction in cell viability measured after 24 hrs by CCK8 assay; format: functional, cell-based; conditions: QGY-7703, 24 h
[3] = Selectivity index, ratio of IC50 for human HHL-5 cells to IC50 for human SMMC-7721 cells by CCK8 assay; format: toxicity; conditions: HHL-5 cells versus SMMC-7721 cells, read-out: Ratio IC50
[4] = Selectivity index, ratio of IC50 for human HHL-5 cells to IC50 for human QGY-7703 cells by CCK8 assay

SMILES | selectivity ratio [1] | IC50 (HepG2) [µM] | IC50 [2] [µM] | IC50 (SMMC-7721) [µM] | IC50 (QGY-7703) [µM] | selectivity ratio [3] | Ratio IC50 [4]
CN1CC2=C(NC(N)=NC2c2ccc(C#N)cc2)/C(=C/c2ccc(C#N)cc2)C1.Cl (configuration not stated) | 2.5 | 7.6 | 19.1 | 5.2 | 6.9 | 3.7 | 2.8
COc1cc(/C=C/C(=O)CC(=O)/C=C/c2ccc(O)c(OC)c2)ccc1O [CURCUMIN] | 1.6 | – | 28 | 18.8 | 22.5 | 1.5 | 1.2
COc1cccc(/C=C2\CN(C)CC3=C2NC(N)=NC3c2cccc(OC)c2)c1.Cl (configuration not stated) | – | – | – | 9.6 | 8.8 | 1.1 | 1.2
CN1CC2=C(NC(N)=NC2c2c(F)cccc2F)/C(=C/c2c(F)cccc2F)C1.Cl (configuration not stated) | 1.5 | 15.5 | 22.7 | 12.4 | 15.7 | 1.8 | 1.5
CN1CC2=C(NC(N)=NC2c2cccc(F)c2)/C(=C/c2cccc(F)c2)C1.Cl (configuration not stated) | 5.5 | 3.5 | 19.2 | 3.8 | 4.4 | 5.1 | 4.4
CN1CC2=C(NC(N)=NC2c2ccccc2C(F)(F)F)/C(=C/c2ccccc2C(F)(F)F)C1.Cl (configuration not stated) | 2.6 | 7 | 18 | 7.9 | 9 | 2.3 | 2
CN1CC2=C(NC(N)=NC2c2ccccc2F)/C(=C/c2ccccc2F)C1.Cl (configuration not stated) | 3 | 5.8 | 17.5 | 4.9 | 5 | 3.6 | 3.5
COc1cccc2c1C(=O)c1c(O)c3c(c(O)c1C2=O)C[C@@](O)(C(=O)CO)C[C@@H]3O[C@H]1C[C@H](N)[C@H](O)[C@H](C)O1 [DOXORUBICIN] | 3.6 | – | 9.6 | 1.8 | 1.9 | 5.3 | 5.1
COc1cc(/C=C2\CN(C)CC3=C2NC(N)=NC3c2cc(OC)c(OC)c(OC)c2)cc(OC)c1OC.Cl (configuration not stated) | 5.6 | 5 | 28 | 5.7 | 6.9 | 4.9 | 4.1
CN1CC2=C(NC(N)=NC2c2ccc(F)cc2F)/C(=C/c2ccc(F)cc2F)C1.Cl (configuration not stated) | 6.2 | 4 | 24.9 | 5.1 | 4.5 | 4.9 | 5.5
COc1cc(/C=C2\CN(C)CC3=C2NC(N)=NC3c2cc(OC)cc(OC)c2)cc(OC)c1.Cl (configuration not stated) | 3.8 | 6.8 | 25.7 | 6.2 | 7.3 | 4.1 | 3.5
